# Assay results taken from patent publication US8088796B2, “Triamine derivative” (Daiichi Sankyo Company, Limited, priority 2005, dated 2012).
# Counter-ions that a name gives are not always drawn.
# Columns and labels:
# human FXa = target: T1, human FXa (Homo sapiens, UniProt P00742); assay: Determination of human FXa inhibitory effect (IC50 value); type: biochemical; conditions: substrate S-2222, absorbance at 405 nm, room temperature, read-out: FXaIC50
# T1 construct: purchased Enzyme Research Laboratories, Inc
# T1 sequence (P00742 235-488 limits assumed): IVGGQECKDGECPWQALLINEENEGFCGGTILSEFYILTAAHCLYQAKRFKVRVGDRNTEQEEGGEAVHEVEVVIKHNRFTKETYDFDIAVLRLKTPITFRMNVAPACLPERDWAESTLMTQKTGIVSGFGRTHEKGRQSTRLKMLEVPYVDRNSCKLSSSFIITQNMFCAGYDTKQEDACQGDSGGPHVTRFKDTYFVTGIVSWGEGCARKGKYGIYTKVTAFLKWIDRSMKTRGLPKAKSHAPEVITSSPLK
# T1 sequence (P00742 41-179 partner limits assumed): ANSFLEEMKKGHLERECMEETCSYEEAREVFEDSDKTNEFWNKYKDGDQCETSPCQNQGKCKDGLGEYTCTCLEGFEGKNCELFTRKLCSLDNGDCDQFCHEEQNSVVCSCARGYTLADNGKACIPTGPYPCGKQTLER
# Experimental: Determination of Human FXa Inhibitory Effect (IC50 Value)
# To each well of a 96-well microplate, 10 μl of 5% DMSO solutions of each test compound, the concentrations of which were appropriately prepared stepwise, 40 μl of Tris buffer (100 mM Tris, 200 mM potassium chloride, 0.2% BSA, pH 7.4) and 10 μl of 0.0625 U/ml human FXa (Enzyme Research Laboratories, Inc. dissolved and diluted with Tris buffer) were added, and 40 μl of a 750 μM aqueous solution of S-2222 (Chromogenix Co.) was added. Absorbance at 405 nm was measured for 10 minutes at room temperature to determine an increase in absorbance (ΔOD/min). As a control, Tris buffer was used in place of the test compound.
# The rate of inhibition (%) at the final concentration of the test compound calculated using the following equation and the final concentration of the test compound were plotted as ordinate and as abscissa, respectively on a logarithmic normal probability paper, to determine the 50% inhibition dose (IC^50 value). Rate of inhibition (%)=(1−(ΔOD/min) of test compound[…](ΔOD/min) of control)×100
# Human blood plasma = assay: Determination of prothrombin time (PT); type: biochemical; conditions: concentration at which PT is doubled, Thromboplastin C Plus, linear regression
# Experimental: Determination of Prothrombin Time (PT)
# Human blood plasma (50 μl) was added to 50 μl of each test compound dissolved in 4% DMSO/physiological saline, and the mixture was pre-incubated at 37° C. for 1 minute. Subsequently, 100 μl of 0.5 U/ml Thromboplastin C Plus (Dade Behring) was added to initiate the reaction. The coagulation time was measured using Amelung KC-10A micro coagulometer (MC Medical). As a control, 4% DMSO/physiological saline was used in place of the test compound. The concentration at which PT is doubled (PTCT2) was calculated by linear regression.
# [1] = Test for oral administration (plasma concentration); type: in vivo; conditions: 1 mg/kg, monkey, fasted, 1 mg/2 mL/kg as free form in 0.5% methyl cellulose, plasma 0.5-24 h, HPLC/MS/MS
# Experimental: Test for Oral Administration
# To a monkey which had been fasted for over 15 hours, each test compound was orally administered in a free form at a dose of 1 mg/2 mL/kg. The test compound was dissolved or suspended in a 0.5% methyl cellulose solution. Before and 0.5, 1, 2, 4, 8 and 24 hours after the administration, the blood was collected at a ratio of 9 volumes to 1 volume of […] (total 1 ml). The blood was centrifuged (3000 rpm, 10 minutes, 4° C.), and the plasma was collected by separation. The separated plasma was pre-treated, and was subjected to measurement with HPLC/MS/MS, to calculate the plasma concentration from the areas under peak of the internal standard material and the test compound given by SRM chromatography using a calibration curve.
SMILES,IC50 (human FXa),PTCT2 (Human blood plasma),AUC [1]
"CC(=O)N1CC[C@H](NC(=O)C(=O)Nc2ccc(Cl)cn2)[C@H](NC(=O)c2nc3c(s2)CN(C)CC3)C1 [Example 9, N^1-((3R,4S)-1-acetyl-3-{[(5-methyl-4,5,6,7-tetrahydrothiazolo[5,4-c]pyridin-2-yl)carbonyl]amino}piperidin-4-yl)-N^2-(5-chloropyridin-2-yl)ethanediamide hydrochloride]",1.6 nM,0.25 µM,482 ng·h/mL
"COCC(=O)N1CC[C@H](NC(=O)C(=O)Nc2ccc(Cl)cn2)[C@H](NC(=O)c2nc3c(s2)CN(C)CC3)C1.Cl [Compound A, N^1-(5-chloropyridin-2-yl)-N^2-((3R,4S)-1-(2-methoxyacetyl)-3-{[(5-methyl-4,5,6,7-tetrahydrothiazolo[5,4-c]pyridin-2-yl)carbonyl]amino}piperidin-4-yl)ethanediamide hydrochloride, reference compound]",2.3 nM,0.37 µM,157 ng·h/mL
"CN1CCc2nc(C(=O)N[C@@H]3CN(C=O)CC[C@@H]3NC(=O)C(=O)Nc3ccc(Cl)cn3)sc2C1 [Example 8, N^1-(5-chloropyridin-2-yl)-N^2-((3R,4S)-1-formyl-3-{[(5-methyl-4,5,6,7-tetrahydrothiazolo[5,4-c]pyridin-2-yl)carbonyl]amino}piperidin-4-yl)ethanediamide hydrochloride]",2.2 nM,0.26 µM,826 ng·h/mL
"CN1CCc2nc(C(=O)N[C@@H]3CN(C=O)CC[C@@H]3NC(=O)C(=O)Nc3ccc(Cl)s3)sc2C1 [Example 23, N^1-(5-chlorothiophen-2-yl)-N^2-((3R,4S)-1-formyl-3-{[(5-methyl-4,5,6,7-tetrahydrothiazolo[5,4-c]pyridin-2-yl)carbonyl]amino}piperidin-4-yl)ethanediamide hydrochloride]",0.9 nM,0.14 µM,899 ng·h/mL
"O=CN1CC[C@H](NC(=O)C(=O)Nc2ccc(Cl)cn2)[C@H](NC(=O)c2nc3c(s2)COCC3)C1 [Example 38, N^1-(5-chloropyridin-2-yl)-N^2-((3R,4S)-3-{[(6,7-dihydro-4H-pyrano[4,3-d]thiazol-2-yl)carbonyl]amino}-1-formylpiperidin-4-yl)ethanediamide]",3 nM,0.50 µM,880 ng·h/mL
